Reference: US12516095B2, “Peptide hormone analogues” (IP2IPO INNOVATIONS LIMITED, priority 2019, dated 2026)
Starred links: 1 amine or outer side, 2 acyl side, 3 side chain; linkers in the order of their positions; H or OH if unused. Non-standard residues stand in square brackets, D forms with d. Residues, ends and D or L forms follow the SMILES beside them. Groups on a side chain read outwards from the residue. *: point of attachment. C20 diacid = O=C(O)CCCCCCCCCCCCCCCCCCC(=O)*; C18 diacid = O=C(O)CCCCCCCCCCCCCCCCC(=O)*; γGlu = O=C(O)[C@H](CCC(=O)[*:2])N[*:1]; Aib = CC(C)(N)C(=O)O

experiment: PK measurements for half life assessment in pigs; assay type: in vivo, pig; details: male large white pigs, single subcutaneous injection, plasma; time from tmax to half of Cmax; typically mean of four animals
Procedure: Male large white pigs receive a single subcutaneous injection of the test compound at the start of study (0 hours). Repeated blood samples were taken from the pig over the proceeding 168 hours and plasma separated and stored at −20 to −80° C. Plasma concentration of the test compound was quantified using a radioimmunoassay or mass spectrum analysis. Time taken from tmax to half of Cmax was calculated and represents the half-life (t½) of the compound. Typically, the presented t½ is the mean of four separate animals.

In the case of “H-H[Aib]HGTFTSDYSKYLDAKRAQEFIEWLLQSHHQQHESPPPGK([γGlu-C20 diacid])-OH [Example 701]”, the Half life is reported as 66 h.

same assay, conditions: male, large white, pig, plasma, sc, single subcutaneous injection, time from tmax to half of Cmax, typically mean of four animals

`CC[C@H](C)[C@H](NC(=O)[C@H](Cc1ccccc1)NC(=O)[C@H](CCC(=O)O)NC(=O)[C@H](CCC(N)=O)NC(=O)[C@H](C)NC(=O)[C@H](CCCNC(=N)N)NC(=O)[C@H](CCCCN)NC(=O)[C@H](C)NC(=O)[C@H](CC(=O)O)NC(=O)[C@H](CC(C)C)NC(=O)[C@H](Cc1ccc(O)cc1)NC(=O)[C@H](CCCCN)NC(=O)[C@H](CO)NC(=O)[C@H](Cc1ccc(O)cc1)NC(=O)[C@H](CC(=O)O)NC(=O)[C@H](CO)NC(=O)[C@@H](NC(=O)[C@H](Cc1ccccc1)NC(=O)[C@@H](NC(=O)CNC(=O)[C@H](Cc1c[nH]cn1)NC(=O)C(C)(C)NC(=O)[C@@H](N)Cc1c[nH]cn1)[C@@H](C)O)[C@@H](C)O)C(=O)N[C@@H](CCC(=O)O)C(=O)N[C@@H](Cc1c[nH]c2ccccc12)C(=O)N[C@@H](CC(C)C)C(=O)N[C@@H](CC(C)C)C(=O)N[C@@H](CCC(N)=O)C(=O)N[C@@H](CO)C(=O)N[C@@H](Cc1c[nH]cn1)C(=O)N[C@@H](CCC(N)=O)C(=O)N[C@@H](CCC(N)=O)C(=O)N[C@@H](Cc1c[nH]cn1)C(=O)N1CCC[C@H]1C(=O)N[C@@H](CO)C(=O)N1CCC[C@H]1C(=O)N1CCC[C@H]1C(=O)N1CCC[C@H]1C(=O)NCC(=O)N[C@@H](CCCCNC(=O)[C@H](CC(N)=O)NC(=O)CC[C@H](NC(=O)CCCCCCCCCCCCCCCCCCC(=O)O)C(=O)O)C(=O)O` [Example 706] (H-H[Aib]HGTFTSDYSKYLDAKRAQEFIEWLLQSHQQHPSPPPGK([Asn-γGlu-C20 diacid])-OH) and `CC[C@H](C)[C@H](NC(=O)[C@H](Cc1ccccc1)NC(=O)[C@H](CCC(=O)O)NC(=O)[C@H](CCC(N)=O)NC(=O)[C@H](C)NC(=O)[C@H](CCCNC(=N)N)NC(=O)[C@H](CCCCN)NC(=O)[C@H](C)NC(=O)[C@H](CC(=O)O)NC(=O)[C@H](CC(C)C)NC(=O)[C@H](Cc1ccc(O)cc1)NC(=O)[C@H](CCCCN)NC(=O)[C@H](CO)NC(=O)[C@H](Cc1ccc(O)cc1)NC(=O)[C@H](CC(=O)O)NC(=O)[C@H](CO)NC(=O)[C@@H](NC(=O)[C@H](Cc1ccccc1)NC(=O)[C@@H](NC(=O)CNC(=O)[C@H](Cc1c[nH]cn1)NC(=O)C(C)(C)NC(=O)[C@@H](N)Cc1c[nH]cn1)[C@@H](C)O)[C@@H](C)O)C(=O)N[C@@H](CCC(=O)O)C(=O)N[C@@H](Cc1c[nH]c2ccccc12)C(=O)N[C@@H](CC(C)C)C(=O)N[C@@H](CC(C)C)C(=O)N[C@@H](CCC(N)=O)C(=O)N[C@@H](CO)C(=O)N[C@@H](Cc1c[nH]cn1)C(=O)N[C@@H](CCC(N)=O)C(=O)N[C@@H](CCC(N)=O)C(=O)N[C@@H](Cc1c[nH]cn1)C(=O)N1CCC[C@H]1C(=O)N[C@@H](CO)C(=O)N[C@@H](CO)C(=O)N[C@@H](CO)C(=O)N[C@@H](CO)C(=O)N[C@@H](C)C(=O)N[C@@H](CCCCNC(=O)[C@H](CC(N)=O)NC(=O)CC[C@H](NC(=O)CCCCCCCCCCCCCCCCCCC(=O)O)C(=O)O)C(=O)O` [Example 707] (H-H[Aib]HGTFTSDYSKYLDAKRAQEFIEWLLQSHQQHPSSSSAK([Asn-γGlu-C20 diacid])-OH) are within 1.5-fold of each other in half-life: 110 h for the first, 103 h for the second.

`CC[C@H](C)[C@H](NC(=O)[C@H](Cc1ccccc1)NC(=O)[C@H](CCC(=O)O)NC(=O)[C@H](Cc1c[nH]cn1)NC(=O)[C@H](C)NC(=O)[C@H](CCCNC(=N)N)NC(=O)[C@H](CCCCN)NC(=O)[C@H](C)NC(=O)[C@H](CC(=O)O)NC(=O)[C@H](CC(C)C)NC(=O)[C@H](Cc1ccc(O)cc1)NC(=O)[C@H](CCCCN)NC(=O)[C@H](CO)NC(=O)[C@H](Cc1ccc(O)cc1)NC(=O)[C@H](CC(=O)O)NC(=O)[C@H](CO)NC(=O)[C@@H](NC(=O)[C@H](Cc1ccccc1)NC(=O)[C@@H](NC(=O)CNC(=O)[C@H](Cc1c[nH]cn1)NC(=O)C(C)(C)NC(=O)[C@@H](N)Cc1c[nH]cn1)[C@@H](C)O)[C@@H](C)O)C(=O)N[C@@H](CCC(=O)O)C(=O)N[C@@H](Cc1c[nH]c2ccccc12)C(=O)N[C@@H](CC(C)C)C(=O)N[C@@H](CC(C)C)C(=O)N[C@@H](CCC(N)=O)C(=O)N[C@@H](CO)C(=O)N[C@@H](Cc1c[nH]cn1)C(=O)N[C@@H](CCC(N)=O)C(=O)N[C@@H](CCC(N)=O)C(=O)N[C@@H](Cc1c[nH]cn1)C(=O)N[C@@H](CCC(=O)O)C(=O)N[C@@H](CO)C(=O)N1CCC[C@H]1C(=O)N1CCC[C@H]1C(=O)N1CCC[C@H]1C(=O)N[C@@H](CCCCNC(=O)[C@H](CO)NC(=O)CNC(=O)CC[C@H](NC(=O)CCCCCCCCCCCCCCCCC(=O)O)C(=O)O)C(=O)O` [Example 587] (H-H[Aib]HGTFTSDYSKYLDAKRAHEFIEWLLQSHQQHESPPPK([Ser-Gly-γGlu-C18 diacid])-OH) and `CC[C@H](C)[C@H](NC(=O)[C@H](Cc1ccccc1)NC(=O)[C@H](CCC(=O)O)NC(=O)[C@H](Cc1c[nH]cn1)NC(=O)[C@H](C)NC(=O)[C@H](CCCNC(=N)N)NC(=O)[C@H](CCCCN)NC(=O)[C@H](C)NC(=O)[C@H](CC(=O)O)NC(=O)[C@H](CC(C)C)NC(=O)[C@H](Cc1ccc(O)cc1)NC(=O)[C@H](CCCCN)NC(=O)[C@H](CO)NC(=O)[C@H](Cc1ccc(O)cc1)NC(=O)[C@H](CC(=O)O)NC(=O)[C@H](CO)NC(=O)[C@@H](NC(=O)[C@H](Cc1ccccc1)NC(=O)[C@@H](NC(=O)CNC(=O)[C@H](Cc1c[nH]cn1)NC(=O)C(C)(C)NC(=O)[C@@H](N)Cc1c[nH]cn1)[C@@H](C)O)[C@@H](C)O)C(=O)N[C@@H](CCC(=O)O)C(=O)N[C@@H](Cc1c[nH]c2ccccc12)C(=O)N[C@@H](CC(C)C)C(=O)N[C@@H](CC(C)C)C(=O)N[C@@H](CCC(N)=O)C(=O)N[C@@H](CO)C(=O)N[C@@H](Cc1c[nH]cn1)C(=O)N[C@@H](CCC(N)=O)C(=O)N[C@@H](CCC(N)=O)C(=O)N[C@@H](Cc1c[nH]cn1)C(=O)N[C@@H](CCC(=O)O)C(=O)N[C@@H](CO)C(=O)N1CCC[C@H]1C(=O)N1CCC[C@H]1C(=O)N1CCC[C@H]1C(=O)N[C@@H](CCCCNC(=O)CC[C@H](NC(=O)CCCCCCCCCCCCCCCCCCC(=O)O)C(=O)O)C(=O)O` [Example 588] (H-H[Aib]HGTFTSDYSKYLDAKRAHEFIEWLLQSHQQHESPPPK([γGlu-C20 diacid])-OH) are within 1.5-fold of each other in half-life: 84 h for the first, 65 h for the second.

“H-H[Aib]HGTFTSDYSKYLDAKRAQEFIEWLLQSHHQQHESPPPGK([Asn-γGlu-C20 diacid])-OH [Example 647]” and `CC[C@H](C)[C@H](NC(=O)[C@H](Cc1ccccc1)NC(=O)[C@H](CCC(=O)O)NC(=O)[C@H](CCCNC(=N)N)NC(=O)[C@H](C)NC(=O)[C@H](CCCNC(=N)N)NC(=O)[C@H](CCCCN)NC(=O)[C@H](C)NC(=O)[C@H](CC(=O)O)NC(=O)[C@H](CC(C)C)NC(=O)[C@H](Cc1ccc(O)cc1)NC(=O)[C@H](CCCCN)NC(=O)[C@H](CO)NC(=O)[C@H](Cc1ccc(O)cc1)NC(=O)[C@H](CC(=O)O)NC(=O)[C@H](CO)NC(=O)[C@@H](NC(=O)[C@H](Cc1ccccc1)NC(=O)[C@@H](NC(=O)CNC(=O)[C@H](Cc1c[nH]cn1)NC(=O)C(C)(C)NC(=O)[C@@H](N)Cc1c[nH]cn1)[C@@H](C)O)[C@@H](C)O)C(=O)N[C@@H](CCC(=O)O)C(=O)N[C@@H](Cc1c[nH]c2ccccc12)C(=O)N[C@@H](CC(C)C)C(=O)N[C@@H](CC(C)C)C(=O)N[C@@H](CCC(N)=O)C(=O)N[C@@H](CO)C(=O)N[C@@H](Cc1c[nH]cn1)C(=O)N[C@@H](CCC(N)=O)C(=O)N[C@@H](CCC(N)=O)C(=O)N[C@@H](Cc1c[nH]cn1)C(=O)N1CCC[C@H]1C(=O)N[C@@H](CO)C(=O)N1CCC[C@H]1C(=O)N1CCC[C@H]1C(=O)N1CCC[C@H]1C(=O)NCC(=O)N[C@@H](CCCCNC(=O)[C@H](CC(N)=O)NC(=O)CC[C@H](NC(=O)CCCCCCCCCCCCCCCCCCC(=O)O)C(=O)O)C(=O)O` [Example 705] (H-H[Aib]HGTFTSDYSKYLDAKRAREFIEWLLQSHQQHPSPPPGK([Asn-γGlu-C20 diacid])-OH) are within 1.5-fold of each other in half-life: 106 h for the first, 84 h for the second.

“H-H[Aib]HGTFTSDYSKYLDAKRAQEFIEWLLQSHQQHHESPPPGK([γGlu-C20 diacid])-OH [Example 642]” and `CC[C@H](C)[C@H](NC(=O)[C@H](Cc1ccccc1)NC(=O)[C@H](CCC(=O)O)NC(=O)[C@H](CCCNC(=N)N)NC(=O)[C@H](C)NC(=O)[C@H](CCCNC(=N)N)NC(=O)[C@H](CCCCN)NC(=O)[C@H](C)NC(=O)[C@H](CC(=O)O)NC(=O)[C@H](CC(C)C)NC(=O)[C@H](Cc1ccc(O)cc1)NC(=O)[C@H](CCCCN)NC(=O)[C@H](CO)NC(=O)[C@H](Cc1ccc(O)cc1)NC(=O)[C@H](CC(=O)O)NC(=O)[C@H](CO)NC(=O)[C@@H](NC(=O)[C@H](Cc1ccccc1)NC(=O)[C@@H](NC(=O)CNC(=O)[C@H](Cc1c[nH]cn1)NC(=O)C(C)(C)NC(=O)[C@@H](N)Cc1c[nH]cn1)[C@@H](C)O)[C@@H](C)O)C(=O)N[C@@H](CCC(=O)O)C(=O)N[C@@H](Cc1c[nH]c2ccccc12)C(=O)N[C@@H](CC(C)C)C(=O)N[C@@H](CC(C)C)C(=O)N[C@@H](CCC(N)=O)C(=O)N[C@@H](CO)C(=O)N[C@@H](Cc1c[nH]cn1)C(=O)N[C@@H](CCC(N)=O)C(=O)N[C@@H](CCC(N)=O)C(=O)N[C@@H](Cc1c[nH]cn1)C(=O)N[C@@H](CCC(=O)O)C(=O)N[C@@H](CO)C(=O)N1CCC[C@H]1C(=O)N1CCC[C@H]1C(=O)N1CCC[C@H]1C(=O)NCC(=O)N[C@@H](CCCCNC(=O)[C@H](CC(N)=O)NC(=O)CC[C@H](NC(=O)CCCCCCCCCCCCCCCCCCC(=O)O)C(=O)O)C(=O)O` [Example 704] (H-H[Aib]HGTFTSDYSKYLDAKRAREFIEWLLQSHQQHESPPPGK([Asn-γGlu-C20 diacid])-OH) are within 1.5-fold of each other in half-life: 109 h for the first, 96 h for the second.

With “H-H[Aib]HGTFTSDYSKYLDAKRAQEFIEWLLQSHQHQHESPPPGK([His-Asn-γGlu-C18 diacid])-OH [Example 640]” the half-life was 135 h.
